Where two headings read alike, the source gives them in different places.
Biological target: T1, EBP-Ig (N-terminal 225 amino acids of the human EPO receptor joined to an Ig heavy chain) (Homo sapiens, UniProt P19235)
T1 construct: Ig heavy chain (fusion partner); made in house; host or cells: NSO cells (secreted into conditioned media)
T1 sequence (P19235 25-250 limits assumed): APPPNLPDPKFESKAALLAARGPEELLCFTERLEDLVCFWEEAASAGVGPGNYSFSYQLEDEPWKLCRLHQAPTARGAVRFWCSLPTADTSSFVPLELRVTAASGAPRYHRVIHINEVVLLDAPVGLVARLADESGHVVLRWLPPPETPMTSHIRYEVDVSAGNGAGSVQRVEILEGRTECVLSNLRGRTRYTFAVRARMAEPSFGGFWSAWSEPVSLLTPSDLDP
Assay: Inhibition of [125I]EPO binding to immobilized EBP-Ig (EPO binding protein-Ig), scintillation Flash plate competition assay
Details: for IC30 μM (Inhibition of EPO binding to EBP-Ig): 0–500 μM test compound; for % inh @ 50 μM (Inhibition of EPO binding to EBP-Ig): 50 μM test compound, average % inhibition
Description: The interaction of biotin and streptavidin is frequently employed to capture and effectively immobilize reagents useful in assay protocols and has been employed here as a simple method to capture and immobilize EBP-Ig. EBP-Ig is initially randomly modified with an amine reactive derivative of biotin to produce biotinylated-EBP-Ig. Use of streptavidin coated plates allows the capture of the biotinylated EBP-Ig on the surface of a scintillant impregnated coated well (Flash plates, NEN-DuPont). […] The amount of light produced was quantified to estimate the amount of ligand binding. The specific assay format was suitable for the multi-well plate capacity of a Packard TopCount Microplate Scintillation counter.
Biotinylated EBP-Ig was prepared as follows. EBP-Ig (3 mL, OD280 2.9) was exchanged into 50 mM sodium bicarbonate, pH 8.5 using a Centriprep 10 ultrafiltration device. The final volume of the exchanged protein was 1.2 mL (OD280 2.6, representing about 2 mg total protein). 10 μL of a 4 mg/ml solution of NHS-LC-Biotin (Pierce) was added and the reaction mixture placed on ice in the dark for two hours. Unreacted biotin was removed by exchange of the reaction buffer into PBS in a Centriprep 10 device and the protein reagent aliquoted and stored at −70° C.
All wells were adjusted to a final DMSO concentration of 5%. […] After all additions were made, the plate was covered with an adhesive top seal and placed in the dark at room temperature overnight. The next day all liquid was aspirated from the wells to limit analyte dependent quench of the signal, and the plates were counted on a Packard TOPCOUNT Microplate Scintillation Counter. […] Corrected total binding (CTB) was calculated as: TB−NSB=CTB. […] Table 1 lists the average % inhibition, and if determined the IC50 and IC30 values for compounds of Formula I, where the compound numbers refer to the compounds in the tables accompanying the preparative examples.

[1] = read-out: % inh @ 50 μM (Inhibition of EPO binding to EBP-Ig)
[2] = read-out: EPO/EBP-Ig % inh @ 50 μM, Table 6, 50 μM
[3] = read-out: EPO/EBP-Ig % inh @ 50 μM, Table 7, 50 μM

SMILES	IC30 μM (Inhibition of EPO binding to EBP-Ig) (0.5 nM [125I]EPO)	inhibition at 50 µM [1]	EPO/EBP-Ig % inh @ 50 μM (Table 7, 50 μM)	other results
O=C(O)CCC(C(=O)O)N(C/C=C/c1cccc(Oc2cccc(C(F)(F)F)c2)c1)C/C=C/c1cccc(Oc2cccc(C(F)(F)F)c2)c1 (stereo not shown) [compound 105]	25 µM	70%		IC50: 35 µM; inhibition at 50 µM [2]: 70%
O=C(O)CC(C(=O)O)N(C/C=C/c1cccc(Oc2ccccc2)c1)C/C=C/c1cccc(Oc2ccccc2)c1 (stereo not shown) [compound 108]	23 µM	81%		inhibition at 50 µM [2]: 81%
COC(=O)C(CCCCNC(=O)OC(C)(C)C)N(Cc1cccc(OCc2ccccc2)c1)Cc1cccc(OCc2ccccc2)c1 (stereo not shown) [compound 109]			7%	
COC(=O)C(CCCCN)N(Cc1ccc(OCc2ccccc2)cc1)Cc1ccc(OCc2ccccc2)cc1 (stereo not shown) [compound 110]	6 µM	54%		inhibition at 50 µM [3]: 54%
COC(=O)C(CCCCN)N(Cc1cccc(OCc2ccccc2)c1)Cc1cccc(OCc2ccccc2)c1 (stereo not shown) [compound 112]	2 µM		59%	% inh @ 50 μM (Inhibition of EPO binding to EBP-Ig) (0.5 nM [125I]EPO): 59%; IC50 (read-out: IC50, μM (Inhibition of EPO binding to EBP-Ig), 0.5 nM [125I]EPO, concentration reducing corrected total binding to 50%): 10 µM
COC(=O)C(CCCCN)N(Cc1ccc(OCc2ccccc2)cc1)Cc1cccc([N+](=O)[O-])c1 (stereo not shown) [compound 114]	10 µM	37%		inhibition at 50 µM [3]: 37%
COC(=O)C(CCCCN)N(Cc1ccc(OCc2ccccc2)cc1)Cc1cccc(N)c1 (stereo not shown) [compound 115]		35%		inhibition at 50 µM [3]: 35%
CCCCC(=O)Nc1cccc(CN(Cc2ccc(OCc3ccccc3)cc2)C(CCCCN)C(=O)OC)c1 (stereo not shown) [compound 116]			32%	% inh @ 50 μM (Inhibition of EPO binding to EBP-Ig) (0.5 nM [125I]EPO): 32%
COC(=O)C(CCCCN)N(Cc1ccc(OCc2ccccc2)cc1)Cc1cccc(NC(=O)c2ccc(C)cc2)c1 (stereo not shown) [compound 118]	2 µM	36%		IC50: 10 µM; inhibition at 50 µM [3]: 36%
COC(=O)C(CCCCN)N(Cc1ccc(OCc2ccccc2)cc1)Cc1cccc(NC(=O)C(C)C)c1 (stereo not shown) [compound 119]			34%	% inh @ 50 μM (Inhibition of EPO binding to EBP-Ig) (0.5 nM [125I]EPO): 34%
COC(=O)C(CCCCN)N(Cc1ccc(OCc2ccccc2)cc1)Cc1cccc(NC(=O)c2ccncc2)c1 (stereo not shown) [compound 120]			35%	% inh @ 50 μM (Inhibition of EPO binding to EBP-Ig) (0.5 nM [125I]EPO): 35%
COC(=O)C(CCCCN)N(Cc1ccc(OCc2ccccc2)cc1)Cc1cccc(NC(=O)c2ccc3ccccc3c2)c1 (stereo not shown) [compound 121]	6 µM		45%	% inh @ 50 μM (Inhibition of EPO binding to EBP-Ig) (0.5 nM [125I]EPO): 45%
COC(=O)C(CCCCN)N(C/C=C/c1cccc(Oc2ccccc2)c1)Cc1cccc(Oc2ccccc2)c1 (stereo not shown) [compound 137]	5 µM	60%		IC50: 30 µM
COC(=O)C(CCCCN)N(C/C=C/c1cccc(Oc2ccc(C(C)(C)C)cc2)c1)Cc1cccc(OCc2ccccc2)c1 (stereo not shown) [compound 139]	2 µM	46%		IC50: 10 µM
COC(=O)C(CCCCNC(=O)OCc1ccccc1)N(C/C=C/c1ccccc1)C/C=C/c1ccccc1 (stereo not shown) [compound 171]				EPO/EBP-Ig % inh @ 50 μM (50 μM compound, Table 9): nb
O=C(NCCCCC(C(=O)O)N(C/C=C/c1ccccc1)C/C=C/c1ccccc1)OCc1ccccc1 (stereo not shown) [compound 172]				EPO/EBP-Ig % inh @ 50 μM (50 μM compound, Table 9): 15%
CC(C)(C)OC(=O)C(CCCCNC(=O)OCc1ccccc1)N(C/C=C/c1ccccc1)C/C=C/c1ccccc1 (stereo not shown) [compound 173]				EPO/EBP-Ig % inh @ 50 μM (50 μM compound, Table 9): 5%
COC(=O)C(CCCCNC(=O)OCc1ccccc1)N(C/C=C/c1ccc(OC)cc1)C/C=C/c1ccc(OC)cc1 (stereo not shown) [compound 174]				EPO/EBP-Ig % inh @ 50 μM (50 μM compound, Table 9): 23%
